# Data reported in paper PMC12236907, “A Natural Depsipeptide Antibiotic that Targets the E site of the Bacterial Ribosome” (Research Square, 2025).
# Legend:
# bacterial translation = conditions: ref [32],[33]; cited from earlier work
# Protocol: Bound in its primary site, MKM obstructs placement of C75 and A76 of the CCA end of a deacylated tRNA within the E-site of the large ribosomal subunit, with the most significant overlap of Phe3 of MKM with the 3’ terminal adenine of the E-tRNA (Fig. 3h).
# [1] = system: K. pneumoniae ATCC 33495 and C1559; assay: C. elegans – K. pneumoniae in vivo antibiotic activity assay (survival); parameters: species or system K. pneumoniae in Caenorhabditis elegans; conditions: MKM 64 μg/ml or polymyxin B 25 μg/ml, 6 days, vs DMSO; Log-rank (Mantel–Cox) test
# Protocol: A C. elegans double mutant strain, AU37 (glp-4(bn2);sek-1(km4)), was used for this assay due to its enhanced pathogen infection sensitivity and temperature-sensitive sterility. The infection protocol was carried out as previously described, with slight modifications to accommodate our experimental conditions. Standard C. elegans media and protocols were used for the maintenance and growth of worms. To summarize, eggs were collected from gravid adult worms by bleaching and incubated on solid agar plates at 25 °C for 48 hours, until early adulthood. Worms were thoroughly washed with M9 buffer and transferred onto LB agar plates containing lawns of infective K. pneumoniae and incubated for another 24 hours. Worms were then washed from plates and resuspended in M9 to an approximate 2 worm per microlitre concentration. A survival assay was conducted in a 96-well plate with experimental wells containing 15 μl of worms, 80 μl S-basal (5.85 g NaCl, 1 g K2HPO4, 6 g KH2PO4, 1 ml cholesterol (5 mg/ml in ethanol), H2O to 1 litre. Sterilize by autoclaving), and 5 μl of test compound. Plates were sealed with a porous film and incubated at 25°C for a total of 7 days. The number of dead worms were counted every 24 hours to generate a Kaplan-Meier survival curve.
# eukaryotic ribosome = conditions: ref [23],[29],[55]; cited from earlier work
# Excerpt: Superficially, the mode of action of MKM resembles that of CHX, since MKM also stalls the elongating ribosome. However, the mechanism of translation inhibition by CHX and MKM are likely to be principally different. Because of the small size of CHX, it was proposed to co-accommodate in the E site of the eukaryotic ribosome ...
Compound,inhibition of bacterial translation (bacterial translation),survival benefit in C. elegans (in words) [1],effect on eukaryotic translation (eukaryotic ribosome)
CC(=O)O[C@@H]1[C@@H](O)[C@H](O[C@H]2[C@H](OC(=O)[C@H]3CC[C@@H]4[C@H](C3)O[C@@]3(C[C@H](OC(=O)/C=C/c5ccccc5)[C@H](C)CO3)[C@]43CO3)O[C@H](C)[C@@H](O)[C@@H]2OC(C)=O)O[C@H](C)[C@H]1O [phyllanthoside],do not inhibit bacterial translation,,
polymyxin B [reference compound],,significantly improved survival,
C/C=C\[C@H](C)[C@H]1O[C@]1(C)[C@@H](O)[C@H]1COC(=O)[C@H](O)[C@@H](OC)[C@H](C)C(=O)[C@H](C)[C@@H](O)/C(C)=C/[C@H](C)C(=O)CC[C@@H](C)C1=O [13-deoxytedanolide],do not inhibit bacterial translation,,
C/C(=C\[C@H](C)C(=O)C[C@H](O)CC1CC(=O)NC(=O)C1)[C@@H]1OC(=O)/C=C/CC/C=C/C=C\[C@@H]1C [lactimidomycin],do not inhibit bacterial translation,,captures the ribosomes at start codons but has little effect on translation elongation or termination
C[C@@H]1C[C@@H]([C@H](O)CC2CC(=O)NC(=O)C2)C(=O)[C@@H](C)C1 [cycloheximide],do not inhibit bacterial translation,,arrests the elongating ribosome
